Here are results for 13 compounds from patent US20240190880A1 (THE REGENTS OF THE UNIVERSITY OF MICHIGAN, priority 2021, published 2024).

One test addresses T1, ER (Homo sapiens, UniProt P03372).
T1 construct: host or cells: T47D and MCF7 human breast cancer cells
T1 sequence (P03372 1-595): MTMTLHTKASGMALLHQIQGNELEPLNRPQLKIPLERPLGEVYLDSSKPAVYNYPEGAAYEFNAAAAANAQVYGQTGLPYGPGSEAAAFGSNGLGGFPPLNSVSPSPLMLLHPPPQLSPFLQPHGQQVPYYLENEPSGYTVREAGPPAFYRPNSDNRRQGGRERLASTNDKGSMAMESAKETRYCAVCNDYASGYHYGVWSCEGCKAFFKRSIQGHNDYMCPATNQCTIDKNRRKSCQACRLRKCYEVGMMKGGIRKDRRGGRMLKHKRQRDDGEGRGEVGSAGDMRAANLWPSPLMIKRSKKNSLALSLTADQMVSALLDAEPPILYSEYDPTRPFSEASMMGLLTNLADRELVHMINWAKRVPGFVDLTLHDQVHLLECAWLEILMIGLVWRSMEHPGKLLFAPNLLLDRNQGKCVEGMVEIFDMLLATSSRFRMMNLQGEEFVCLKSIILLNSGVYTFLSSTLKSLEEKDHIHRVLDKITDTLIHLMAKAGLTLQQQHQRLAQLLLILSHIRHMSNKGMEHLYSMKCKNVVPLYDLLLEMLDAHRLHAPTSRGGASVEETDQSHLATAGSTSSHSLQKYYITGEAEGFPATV
In words: ER degradation activity, in-cell western blot analysis in T47D cells. As to conditions: 16 hours, Table A does not say which cell line (T47D or MCF7), read-out: Potency (DC50). Format: cell-based. In outline:
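Human T47D cells (DMEM, 10% FBS) are dosed for 16 h with 0.5% DMSO final and probed with 680- and 800-dye secondary antibodies. Relative ER is calculated against vehicle and untreated wells.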
For `C[C@@H]1Cc2cc(O)ccc2C(c2ccc(N3CCC(C(=O)N4CCC(N5Cc6cc7c(cc6C5)C(=O)N(C5CCC(=O)NC5=O)C7=O)CC4)CC3)cc2)N1CC(F)F` (stereo partly drawn) [E 321, 6-(1-(1-(4-((3R)-2-(2,2-difluoroethyl)-6-hydroxy-3-methyl-1,2,3,4-tetrahydroisoquinolin-1-yl)phenyl)piperidine-4-carbonyl)piperidin-4-yl)-2-(2,6-dioxopiperidin-3-yl)-6,7-dihydropyrrolo[3,4-f]isoindole-1,3(2H,5H)-dione], the DC50 (in general, the concentration giving 50% degradation) is less than 10 nM.
On the same count and under the same terms, with `C[C@@H]1Cc2c([nH]c3ccccc23)[C@@H](c2c(F)cc(N3CCC4(CCN(C(=O)CN5Cc6cc7c(cc6C5)C(=O)N(C5CCC(=O)NC5=O)C7)C4)CC3)cc2F)N1CC(F)F` (stereo partly drawn) [E 64, 3-(6-(2-(8-(4-((1R,3R)-2-(2,2-difluoroethyl)-3-methyl-2,3,4,9-tetrahydro-1H-pyrido[3,4-b]indol-1-yl)-3,5-difluorophenyl)-2,8-diazaspiro[4.5]decan-2-yl)-2-oxoethyl)-1-oxo-3,5,6,7-tetrahydropyrrolo[3,4-f]isoindol-2(1H)-yl)piperidine-2,6-dione] the figure was less than 10 nM.
Turning to `O=C1CCC(N2C(=O)c3cc4c(cc3C2=O)CN(CC(=O)N2CCC3(CC2)CN(c2ccc([C@@H]5c6ccc(O)cc6CC[C@@H]5c5ccccc5)cc2)C3)C4)C(=O)N1` (mixture of isomers) [E 10, Rac-2-(2,6-dioxopiperidin-3-yl)-6-(2-(2-(4-((1R,2S)-6-hydroxy-2-phenyl-1,2,3,4-tetrahydronaphthalen-1-yl)phenyl)-2,7-diazaspiro[3.5]nonan-7-yl)-2-oxoethyl)-6,7-dihydropyrrolo[3,4-f]isoindole-1,3(2H,5H)-dione], the DC50 fell in the range of 10 to 100 nM.
Still for that read-out and setting: with `O=C1CCC(N2C(=O)c3cc4c(cc3C2=O)CN(CC2CCN(C(=O)C3(F)CCN(c5ccc([C@@H]6c7ccc(O)cc7CC[C@@H]6c6ccccc6)cc5)CC3)CC2)C4)C(=O)N1` (stereo partly drawn) [E 208, 2-(2,6-dioxopiperidin-3-yl)-6-((1-(4-fluoro-1-(4-((1R,2S)-6-hydroxy-2-phenyl-1,2,3,4-tetrahydronaphthalen-1-yl)phenyl)piperidine-4-carbonyl)piperidin-4-yl)methyl)-6,7-dihydropyrrolo[3,4-f]isoindole-1,3(2H,5H)-dione] the figure was greater than 100 nM; with `O=C1CCC(N2C(=O)c3cc4c(cc3C2=O)CN(CC(=O)N2CC3(CCN(c5ccc([C@@H]6c7ccc(O)cc7CC[C@@H]6c6ccc(F)cc6)cc5)CC3)C2)CC4)C(=O)N1` (mixture of isomers) [E 164, rac-2-(2,6-dioxopiperidin-3-yl)-6-(2-(7-(4-((1R,2S)-2-(4-fluorophenyl)-6-hydroxy-1,2,3,4-tetrahydronaphthalen-1-yl)phenyl)-2,7-diazaspiro[3.5]nonan-2-yl)-2-oxoethyl)-5,6,7,8-tetrahydro-1H-pyrrolo[3,4-g]isoquinoline-1,3(2H)-dione], 10 to 100 nM; with `C[C@@H]1Cc2c([nH]c3ccccc23)[C@@H](c2c(F)cc(N3CCC4(CCN(C(=O)CN5Cc6cc7c(cc6C5)C(=O)N(C5CCC(=O)NC5=O)C7=O)CC4)CC3)cc2F)N1CC(F)(F)F` (stereo partly drawn) [E 226, 6-(2-(9-(3,5-difluoro-4-((1R,3R)-3-methyl-2-(2,2,2-trifluoroethyl)-2,3,4,9-tetrahydro-1H-pyrido[3,4-b]indol-1-yl)phenyl)-3,9-diazaspiro[5.5]undecan-3-yl)-2-oxoethyl)-2-(2,6-dioxopiperidin-3-yl)-6,7-dihydropyrrolo[3,4-f]isoindole-1,3(2H,5H)-dione], 10 to 100 nM.
On the same count and under the same terms, with `O=C1CCC(N2C(=O)c3cc4c(cc3C2=O)CN(C2CCN(CC3CCN(c5ccc([C@@H]6c7ccc(O)cc7CC[C@@H]6c6ccc(F)cc6)cc5)CC3)CC2)C4)C(=O)N1` (stereo partly drawn) [E 273, 2-(2,6-dioxopiperidin-3-yl)-6-(1-((1-(4-((1R,2S)-2-(4-fluorophenyl)-6-hydroxy-1,2,3,4-tetrahydronaphthalen-1-yl)phenyl)piperidin-4-yl)methyl)piperidin-4-yl)-6,7-dihydropyrrolo[3,4-f]isoindole-1,3(2H,5H)-dione] the figure was 10 to 100 nM; with `O=C1CCC(N2C(=O)c3cc4c(cc3C2=O)CN(CC2CCN(CC3CCN(c5ccc([C@@H]6c7ccc(O)cc7CC[C@@H]6c6ccccc6)cc5)CC3)CC2)C4)C(=O)N1` (stereo partly drawn) [E 217, 2-(2,6-dioxopiperidin-3-yl)-6-((1-((1-(4-((1R,2S)-6-hydroxy-2-phenyl-1,2,3,4-tetrahydronaphthalen-1-yl)phenyl)piperidin-4-yl)methyl)piperidin-4-yl)methyl)-6,7-dihydropyrrolo[3,4-f]isoindole-1,3(2H,5H)-dione], greater than 100 nM.
Same read-out and setting: then `O=C1CCC(N2C(=O)c3cc4c(cc3C2=O)CN(C(=O)C2CCC(CN3CCN(c5ccc([C@@H]6c7ccc(O)cc7CC[C@@H]6c6ccccc6)cc5)CC3)CC2)C4)C(=O)N1` (stereo partly drawn) [E 365, 2-(2,6-dioxopiperidin-3-yl)-6-(4-((4-(4-((1R,2S)-6-hydroxy-2-phenyl-1,2,3,4-tetrahydronaphthalen-1-yl)phenyl)piperazin-1-yl)methyl)cyclohexane-1-carbonyl)-6,7-dihydropyrrolo[3,4-f]isoindole-1,3(2H,5H)-dione], with greater than 100 nM.

Still in this test, the particulars now being: compounds 16 hours, Table A does not say whether T47D or MCF7, read-out: Potency (DC50).
Consider `C[C@@H]1Cc2c([nH]c3ccccc23)[C@@H](c2cnc(N3CC4(CCC(CN5Cc6cc7c(cc6C5)C(=O)N(C5CCC(=O)NC5=O)C7=O)CC4)C3)nc2)N1CC(C)(C)F` (stereo partly drawn) [E 471, 2-(2,6-dioxopiperidin-3-yl)-6-((2-(5-((1R,3R)-2-(2-fluoro-2-methylpropyl)-3-methyl-2,3,4,9-tetrahydro-1H-pyrido[3,4-b]indol-1-yl)pyrimidin-2-yl)-2-azaspiro[3.5]nonan-7-yl)methyl)-6,7-dihydropyrrolo[3,4-f]isoindole-1,3(2H,5H)-dione], for which the DC50 lay in the range of 10 to 100 nM.
Same read-out and setting: with `C[C@@H]1Cc2cc(O)ccc2[C@H](c2ccc(C(=O)N3CC4(CCN(C(=O)CN5Cc6cc7c(cc6C5)C(=O)N(C5CCC(=O)NC5=O)C7=O)CC4)C3)cc2)N1CC(F)F` (stereo partly drawn) [E 460, 6-(2-(2-(4-((1S,3R)-2-(2,2-difluoroethyl)-6-hydroxy-3-methyl-1,2,3,4-tetrahydroisoquinolin-1-yl)benzoyl)-2,7-diazaspiro[3.5]nonan-7-yl)-2-oxoethyl)-2-(2,6-dioxopiperidin-3-yl)-6,7-dihydropyrrolo[3,4-f]isoindole-1,3(2H,5H)-dione] the figure was 10 to 100 nM; with `C[C@@H]1Cc2c(ccc3[nH]ncc23)[C@@H](c2c(F)cc(N3CCC(C(=O)N4C5CCC4CC(N4Cc6cc7c(cc6C4)C(=O)N(C4CCC(=O)NC4=O)C7=O)C5)CC3)cc2F)N1CC(F)F` (stereo partly shown) [E 469], 10 to 100 nM; with `C[C@@H]1Cc2c([nH]c3ccccc23)[C@@H](c2c(F)cc(C3=CCC(C(=O)N4CCC(N5Cc6cc7c(cc6C5)C(=O)N(C5CCC(=O)NC5=O)C7=O)CC4)CC3)cc2F)N1CC1(F)CC1` (stereo partly drawn) [E 485, 6-(1-(3′,5′-difluoro-4′-((1R,3R)-2-((1-fluorocyclopropyl)methyl)-3-methyl-2,3,4,9-tetrahydro-1H-pyrido[3,4-b]indol-1-yl)-2,3,4,5-tetrahydro-[1,1′-biphenyl]-4-carbonyl)piperidin-4-yl)-2-(2,6-dioxopiperidin-3-yl)-6,7-dihydropyrrolo[3,4-f]isoindole-1,3(2H,5H)-dione], greater than 100 nM.
